In brackets after ≈: the same amount, converted by molar mass. Read-outs that look alike come from different tables or passages of the source.
Experiments:
HIV-1 strain NL4.3 = assay: Anti-HIV-1 assay in MT-4 cells (p24 Ag ELISA, Example 3); assay type: cell-based
Method in brief: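 MT-4 cells infected with HIV-1 NL4.3 in presence of five-fold compound dilutions, incubated 3–5 days until strong viral CPE in untreated infected cells. Supernatant p24 core antigen measured by ELISA; IC50 is concentration giving 50% reduction in p24.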

HHV-7 (KHR strain) = assay: Anti-HHV-7 assay in SupT1 cells (antigen expression, flow cytometry, Example 3); assay type: cell-based; conditions: SUP-T1; SupT1 cells; read-out: IC50 HHV-7 (50% reduction of HHV-7 antigen expression)
Method in brief: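 SupT1 cells pre-incubated 30 min at room temperature with five-fold compound dilutions, then infected with HHV-7. Every 2–3 days from day 4, half the medium and cells were replaced with compound-free medium. Once microscopic CPE appeared, HHV-7 antigen expression was measured by flow cytometry.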

[1] = Cytotoxicity assay (trypan blue exclusion, propidium iodide); assay type: cell-based, human; conditions: human, read-out: CC50 (50% cytotoxic concentration)
Experimental: Cytotoxicity Assay. Cellular toxicity of the compounds was measured by trypan blue exclusion and also by Propidium Iodide by flow cytometry after 3 or 4 days of incubation, in parallel with the CD4 antigen expression. The CC50 value of each CADA analog is the concentration (in μg/ml) required to reduce the viability of the cells by 50%.

CD4 [2] = target: T1, CD4 (Homo sapiens, UniProt P01730); assay: CD4 down-modulation, flow cytometry with FITC-conjugated anti-CD4 (SK3) mAb, MT-4 cells; assay type: cell-based; parameters: To study the effect of the CADA derivatives on surface CD4 antigen expression, MT-4 and SupT1 cells were incubated; endogenous in cells; host or cells: MT-4, SupT1, PBMC; conditions: for down-regulation of CD4 receptor expression / IC50: MT-4 cells; for down-regulation of CD4 receptor expression: 4 days (FIG. 5); for IC50: day 3, read-out: IC50 CD4 (50% inhibition of extracellular CD4 expression) (converted)
CD4 [3] = target: T1, CD4; assay: CD4 down-modulation, flow cytometry with FITC-conjugated anti-CD4 (SK3) mAb, SupT1 cells; assay type: cell-based; parameters: To study the effect of the CADA derivatives on surface CD4 antigen expression, MT-4 and SupT1 cells were incubated; endogenous in cells; host or cells: MT-4, SupT1, PBMC; conditions: for IC50: day 4, read-out: IC50 CD4 (50% inhibition of extracellular CD4 expression) (converted)
Method in brief: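 MT-4 and SupT1 cells were exposed at 37 °C to 5-fold compound dilutions (50–0.08 μg/ml). On day 3 (MT-4) or day 4 (SupT1) they were stained with FITC anti-CD4 (SK3) for 30 min at 4 °C and analysed by flow cytometry. IC50 was derived from MFI as % of untreated control, after isotype subtraction.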

[4] = Human immunodeficiency virus 1, MT4, 96 h, MT-4 cells, 0.4 μg/ml, 4 days (FIG. 5), read-out: inhibition of NL4.3 virus production (p24)
[5] = Human immunodeficiency virus 1, MT4, MT-4 cells, read-out: IC50 HIV-1 (NL4.3), p24 Ag ELISA

Row | Compound | inhibition at 0.4 µg/mL (HIV-1 strain NL4.3; [4]) | IC50 (HIV-1 strain NL4.3; [5]) | IC50 (HHV-7 (KHR strain)) | CC50 ([1]; MT-4 cells) | CC50 ([1]; SupT1 cells) | down-regulation of CD4 receptor expression (CD4 [2]; 0.4 μg/ml) | down-regulation of CD4 receptor expression (CD4 [2]; 2 μg/ml) | IC50 (CD4 [2]) | IC50 (CD4 [3]) | other results
1 | C=C1CN(S(=O)(=O)c2ccc(C)cc2)CCCN(Cc2ccccc2)CCCN(S(=O)(=O)c2ccc(C)cc2)C1 [CADA] | 25% | 0.72 µg/mL (≈ 1.24 µM) | 0.35 µg/mL (≈ 0.602 µM) | 23.6 µg/mL (≈ 40.6 µM) | > 50 µg/mL | 58% | significantly down-modulated | 602 nM | 980 nM | IC50 (HIV-1 strain NL4.3; Human immunodeficiency virus 1, MT4 cells, Table 6, unit inferred, read-out: IC50(HIV-1)): 0.52 µg/mL (≈ 0.894 µM); inhibition of NL4.3 virus production (p24) (HIV-1 strain NL4.3; MT-4 cells, 0.08 μg/ml, 4 days (FIG. 5)): no anti-HIV-1 activity; inhibition of NL4.3 virus production (p24) (HIV-1 strain NL4.3; MT-4 cells, 2 μg/ml, 4 days (FIG. 5)): significant inhibition; inhibition of NL4.3 virus production (p24) (HIV-1 strain NL4.3; MT-4 cells, 10 μg/ml, 4 days (FIG. 5)): significant inhibition; p24 level (HIV-1 strain NL4.3; MT-4 cells, NL4.3, 0.08 μg/ml, 4 days, infected control cells 325 ng/ml): 392 ng/mL; down-regulation of CD4 receptor expression (CD4 [2]; 0.08 μg/ml): no inhibitory effect; down-regulation of CD4 receptor expression (CD4 [2]; 10 μg/ml): significantly down-modulated
2 | C=C1CN(S(=O)(=O)c2ccc(C)cc2)CCCN(CC2CCCCC2)CCCN(S(=O)(=O)c2ccc(C)cc2)C1 [QJ028] | 88% | 0.2 µg/mL (≈ 0.34 µM) | 0.05 µg/mL (≈ 0.0851 µM) | 20.7 µg/mL (≈ 35.2 µM) | 28.1 µg/mL (≈ 47.8 µM) | 73% | – | 357 nM | 425 nM | CD4 down-regulating potency, fold more active than CADA (CD4 [2]; compared to CADA): 2 fold; selectivity index (CC50/IC50) (CD4 [3]): approximately 100
3 | C=C1CN(S(=O)(=O)c2ccc(C)cc2)CCCN(C(=O)OCCC)CCCN(S(=O)(=O)c2ccc(C)cc2)C1 [QJ033] | – | 1.22 µg/mL (≈ 2.11 µM) | 0.73 µg/mL (≈ 1.26 µM) | 25.5 µg/mL (≈ 44.1 µM) | 32.5 µg/mL (≈ 56.3 µM) | nor significant CD4 down-regulation | 69% | 2060 nM | 3270 nM | inhibition at 2 µg/mL (HIV-1 strain NL4.3; Human immunodeficiency virus 1, MT4, 96 h, MT-4 cells, 2 μg/ml, 4 days (FIG. 5), read-out: inhibition of NL4.3 virus production (p24)): 56%; inhibition of NL4.3 virus production (p24) (HIV-1 strain NL4.3; MT-4 cells, 0.4 μg/ml, 4 days (FIG. 5)): no antiviral activity; CD4 receptor down-modulating activity, fold higher than compound 95-213 (CD4 [2]; compared to 95-213): 5 fold
